Source: PubChem BioAssay (NCI)
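Exposure lasted 48 hours, with cells grown in 96-well plates and compounds tested at five concentrations. TGI is the concentration that stops growth completely.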

Key:
Experiment in all cases: NCI anticancer screen, dose series, 48 h
[1] = test system: SN12C renal
[2] = test system: SR leukemia
[3] = test system: SF-268 CNS
[4] = test system: CCRF-CEM leukemia
[5] = test system: CAKI-1 renal
[6] = test system: COLO 205 colon
[7] = test system: KM12 colon
[8] = test system: IGROV1 ovarian
[9] = test system: EKVX NSCLC
[10] = test system: A498 renal
[11] = test system: DMS 273 small cell lung
[12] = test system: NCI-H522 lung
[13] = test system: TK-10 renal
[14] = test system: OVCAR-4 ovarian
[15] = test system: MOLT-4 leukemia
[16] = test system: HCC-2998 colon
[17] = test system: SNB-75 CNS
[18] = test system: NCI-H23 lung
[19] = test system: M14 melanoma
[20] = test system: NCI-H460 lung
[21] = test system: 786-0 renal
[22] = test system: OVCAR-8 ovarian
[23] = test system: HT29 colon
[24] = test system: SK-MEL-5 melanoma
[25] = test system: ACHN renal
[26] = test system: SW-620 colon
[27] = test system: SNB-19 CNS
[28] = test system: HOP-18 NSCLC
[29] = test system: SK-OV-3 ovarian
[30] = test system: SF-539 CNS
[31] = test system: A549 NSCLC
[32] = test system: HOP-92 NSCLC
[33] = test system: K-562 leukemia
[34] = test system: DLD-1 colon
[35] = test system: HCT-116 colon
[36] = test system: SK-MEL-28 melanoma
[37] = test system: HOP-62 NSCLC
[38] = test system: HL-60(TB) leukemia
[39] = test system: LXFL 529 NSCLC
[40] = test system: RXF 393 renal
[41] = test system: SF-295 CNS
[42] = test system: XF 498 CNS
[43] = test system: M19-MEL melanoma
[44] = test system: NCI-H226 lung
[45] = test system: HCT-15 colon
[46] = test system: KM20L2 colon
[47] = test system: LOX IMVI melanoma
[48] = test system: UACC-257 melanoma
[49] = test system: U251 CNS
[50] = test system: UO-31 renal
[51] = test system: UACC-62 melanoma
[52] = test system: OVCAR-3 ovarian
[53] = test system: RPMI-8226 leukemia
[54] = test system: SK-MEL-2 melanoma
[55] = test system: MALME-3M melanoma
[56] = test system: OVCAR-5 ovarian
[57] = test system: SNB-78 CNS
[58] = test system: DMS 114 small cell lung
[59] = test system: MDA-N
[60] = test system: MDA-MB-435
[61] = test system: T-47D breast
[62] = test system: PC-3 prostate
[63] = test system: HS 578T breast
[64] = test system: DU-145 prostate
[65] = test system: NCI/ADR-RES ovarian
[66] = test system: MCF7 breast
[67] = test system: MDA-MB-231 breast
[68] = test system: BT-549 breast

CN(C)CN(C)c1nc(N(C)C)nc(N(C)CN(C)C)n1
TGI [1]: > 100 µM
TGI [2]: 58.3 µM
TGI [3]: > 100 µM
TGI [4]: 61.1 µM
TGI [5]: > 100 µM
TGI [6]: 61.6 µM
TGI [7]: > 100 µM
TGI [8]: > 100 µM
TGI [9]: > 100 µM
TGI [10]: > 100 µM
TGI [11]: 33.3 µM
TGI [12]: > 100 µM
TGI [13]: > 100 µM
TGI [14]: > 100 µM
TGI [15]: 69.5 µM
TGI [16]: > 100 µM
TGI [17]: > 100 µM
TGI [18]: 95.8 µM
TGI [19]: > 100 µM
TGI [20]: > 100 µM
TGI [21]: > 100 µM
TGI [22]: > 100 µM
TGI [23]: > 100 µM
TGI [24]: > 100 µM
TGI [25]: > 100 µM
TGI [26]: 57.3 µM
TGI [27]: > 100 µM
TGI [28]: > 100 µM
TGI [29]: > 100 µM
TGI [30]: > 100 µM
TGI [31]: > 100 µM
TGI [32]: > 100 µM
TGI [33]: 67.3 µM
TGI [34]: > 100 µM
TGI [35]: > 100 µM
TGI [36]: 83.6 µM
TGI [37]: > 100 µM
TGI [38]: 36.4 µM
TGI [39]: > 100 µM
TGI [40]: 38.9 µM
TGI [41]: > 100 µM
TGI [42]: > 100 µM
TGI [43]: > 100 µM
TGI [44]: > 100 µM
TGI [45]: 68.2 µM
TGI [46]: > 100 µM
TGI [47]: 55.1 µM
TGI [48]: > 100 µM
TGI [49]: > 100 µM
TGI [50]: > 100 µM
TGI [51]: 40.9 µM
TGI [52]: > 100 µM
TGI [53]: 67.2 µM
TGI [54]: 42.6 µM

CCCCNC1=C(C(=O)OCC)/C(=N/NC(=O)c2ccccc2O)CO1
TGI [1]: > 100 µM
TGI [3]: > 100 µM
TGI [4]: > 100 µM
TGI [5]: > 100 µM
TGI [6]: > 100 µM
TGI [7]: > 100 µM
TGI [8]: > 100 µM
TGI [9]: > 100 µM
TGI [10]: > 100 µM
TGI [12]: 57.8 µM
TGI [13]: > 100 µM
TGI [55]: > 100 µM
TGI [14]: > 100 µM
TGI [15]: > 100 µM
TGI [16]: > 100 µM
TGI [18]: > 100 µM
TGI [19]: > 100 µM
TGI [20]: > 100 µM
TGI [21]: > 100 µM
TGI [22]: > 100 µM
TGI [56]: > 100 µM
TGI [24]: > 100 µM
TGI [26]: > 100 µM
TGI [27]: > 100 µM
TGI [28]: > 100 µM
TGI [29]: > 100 µM
TGI [30]: > 100 µM
TGI [31]: > 100 µM
TGI [57]: > 100 µM
TGI [33]: > 100 µM
TGI [34]: > 100 µM
TGI [35]: > 100 µM
TGI [36]: > 100 µM
TGI [37]: > 100 µM
TGI [38]: > 100 µM
TGI [39]: > 100 µM
TGI [40]: > 100 µM
TGI [41]: > 100 µM
TGI [42]: > 100 µM
TGI [43]: > 100 µM
TGI [44]: > 100 µM
TGI [46]: > 100 µM
TGI [47]: > 100 µM
TGI [48]: 14.2 µM
TGI [58]: > 100 µM
TGI [49]: > 100 µM
TGI [50]: 28.1 µM
TGI [51]: > 100 µM
TGI [52]: > 100 µM
TGI [53]: > 100 µM
TGI [54]: > 100 µM

Cc1ccc(/C=C2\N=C(N3CCCC(CO)C3)NC2=O)cc1 (configuration not stated)
TGI [1]: > 100 µM
TGI [2]: > 100 µM
TGI [3]: > 100 µM
TGI [4]: > 100 µM
TGI [5]: > 100 µM
TGI [6]: > 100 µM
TGI [7]: > 100 µM
TGI [8]: > 100 µM
TGI [59]: > 100 µM
TGI [9]: > 100 µM
TGI [12]: > 100 µM
TGI [13]: > 100 µM
TGI [55]: > 100 µM
TGI [14]: > 100 µM
TGI [15]: > 100 µM
TGI [16]: > 100 µM
TGI [17]: > 100 µM
TGI [18]: > 100 µM
TGI [19]: > 100 µM
TGI [21]: > 100 µM
TGI [22]: > 100 µM
TGI [23]: > 100 µM
TGI [56]: > 100 µM
TGI [24]: > 100 µM
TGI [25]: > 100 µM
TGI [26]: > 100 µM
TGI [27]: > 100 µM
TGI [60]: > 100 µM
TGI [61]: > 100 µM
TGI [29]: > 100 µM
TGI [30]: > 100 µM
TGI [62]: > 100 µM
TGI [31]: > 100 µM
TGI [63]: > 100 µM
TGI [32]: > 100 µM
TGI [33]: > 100 µM
TGI [35]: > 100 µM
TGI [64]: > 100 µM
TGI [36]: > 100 µM
TGI [65]: > 100 µM
TGI [66]: > 100 µM
TGI [37]: > 100 µM
TGI [38]: > 100 µM
TGI [40]: > 100 µM
TGI [41]: > 100 µM
TGI [44]: > 100 µM
TGI [45]: > 100 µM
TGI [47]: > 100 µM
TGI [48]: > 100 µM
TGI [67]: > 100 µM
TGI [49]: > 100 µM
TGI [50]: > 100 µM
TGI [51]: > 100 µM
TGI [52]: > 100 µM
TGI [53]: > 100 µM
TGI [68]: > 100 µM
TGI [54]: > 100 µM
